# Tested on: not given
# Test: not given
# Settings: not given
row,melting point,Compound
1,252 to 259 °C,"COc1ccc(C(=O)N[C@@H](CNC(=O)C2CCN(C3CCN(C)CC3)CC2)c2ccccc2)cc1 [Example 262, (R)-N-[2-(4-Methoxybenzoylamino)-2-phenylethyl]-1-(1-methylpiperidin-4-yl)piperidine-4-carboxamide]"
2,190 to 192 °C,COc1ccc(C(=O)N[C@@H](C(=O)N2CCN(CCC3CCCC3)CC2)c2ccccc2)cc1.Cl.O (hydrate or solvate)
3,245 to 251 °C,"CCN1CCC(C(=O)NC[C@H](NC(=O)c2ccc(OC)cc2)c2ccccc2)CC1 [Example 261, (R)-N-[2-(4-Methoxybenzoylamino)-2-phenylethyl]-1-ethylpiperidine-4-carboxamide]"
4,172 to 180 °C (dec.),COc1ccc(C(=O)N[C@@H](C(=O)N2CCN(CC3CCN(C(C)C)CC3)CC2)c2ccccc2)cc1.Cl
5,239 to 244 °C,"COc1ccc(C(=O)N[C@@H](CNC(=O)c2ccc(C(C)C)cc2)c2ccccc2)cc1 [Example 256, (R)-N-[2-(4-Methoxybenzoylamino)-2-phenylethyl]-4-isopropylbenzamide]"
6,253 to 257 °C,"COc1ccc(C(=O)N[C@@H](CNC(=O)C2CCN(C3CCCC3)CC2)c2ccccc2)cc1 [Example 259, (R)-N-[2-(4-Methoxybenzoylamino)-2-phenylethyl]-1-cyclopentylpiperidine-4-carboxamide]"
7,239 to 243 °C,"COc1ccc(C(=O)N[C@@H](CNC(=O)C2CCN(C3CCCCC3)CC2)c2ccccc2)cc1 [Example 260, (R)-N-[2-(4-Methoxybenzoylamino)-2-phenylethyl]-1-cyclohexylpiperidine-4-carboxamide]"
8,230 to 238 °C,"COc1ccc(C(=O)N[C@@H](CNC(=O)c2ccc(C)cc2)c2ccccc2)cc1 [Example 254, (R)-N-[2-(4-Methoxybenzoylamino)-2-phenylethyl]-4-methylbenzamide]"
9,222 to 229 °C,"CCc1ccc(C(=O)NC[C@H](NC(=O)c2ccc(OC)cc2)c2ccccc2)cc1 [Example 255, (R)-N-[2-(4-Methoxybenzoylamino)-2-phenylethyl]-4-ethylbenzamide]"
10,171 to 175 °C,"COc1ccc(C(=O)N[C@@H](CNC(=O)c2ccc(C(C)(C)C)cc2)c2ccccc2)cc1 [Example 257, (R)-N-[2-(4-Methoxybenzoylamino)-2-phenylethyl]-4-tert-butylbenzamide]"

# Tested on: plasma
# Test: Partial Thromboplastin Time (Prothrombin) Test Protocol
# Format: biochemical
# Settings: concentration of the solution added; final concentration in the assay mixture is one third of this value; Example 66 and comparison compounds: average of 3 tests
# Description: The ability of a test compound to elongate Partial Thromboplastin Time (Prothrombin Time) may be evaluated in the following test protocols.
# Partial Thromboplastin Time (Prothrombin) Test Protocol Venous blood was collected into 3.2% (0.109 m) trisodium citrate vacutainer tubes at 1 volume of anticoagulant to nine volumes of blood. The blood cells were separated by centrifugation at 700 g for ten minutes to yield plasma, which was frozen at […] until required.
# To perform the test, 100 μl of plasma was pipetted into in a glass test tube, 1 μl of test compound in DMSO was added, and allowed to warm to 37° over two minutes. 100 μl of warm (37°) Manchester (tissue thromboplasin) reagent (Helena Biosciences, UK) was added, allowed to equilibrate for two minutes. 100 μl of warm (37°) 25 mM calcium chloride solution was added to initiate clotting. The test tube was tilted three times through a 90° angle every five seconds to mix the reagents and the time to clot formation recorded. Data from a series of observations and test compound concentrations are analysed by a SAS statistical analysis program and a CT2 (Concentration required to double clotting time) for each compound is generated.
row,Compound,Conc. necessary to double the prothrombin time [µM]
1,"CS(=O)(=O)c1cc(F)ccc1N1CCN(C(=O)[C@H](NC(=O)c2ccc3ccnc(N)c3c2)c2ccccc2)CC1.O=C(O)C(F)(F)F.O=C(O)C(F)(F)F [1-aminoisoquinolin-7-oyl-D-phenylglycine-4-(4-fluoro-2-methanesulfonylphenyl)-piperazinamide ditrifluoroactetate salt, reference compound]",45
2,"Cc1ccc(C(=O)N[C@@H](C(=O)N2CCN(c3ccc(F)cc3S(C)(=O)=O)CC2)c2ccccc2)cc1N [Example 38, 1-(3-Amino-4-methylbenzoyl-D-phenylglycinyl)-4-(4-fluoro-2-methylsulphonylphenyl)piperazine]",9.0
3,"CS(=O)(=O)c1cc(F)ccc1N1CCN(C(=O)[C@H](NC(=O)c2cccc(N)c2)c2ccccc2)CC1 [Example 30, 1-(3-Aminobenzoyl-D-phenylglycinyl)-4-(4-fluoro-2-methylsulphonylphenyl)piperazine]",7.8
4,"CNc1ccc(C(=O)N[C@@H](C(=O)N2CCC(C3CCN(C)CC3)CC2)c2ccccc2)cc1 [Example 70, 1-(4-(Methylamino)benzoyl-D-phenylglycinyl)-1′-methyl-4,4′-bispiperidine]",4.0
5,"1-(3,4 Diaminobenzoyl-D-phenylglycinyl)-4-(4-fluoro-2-methylsulphonylphenyl)piperazine [Example 32]",11
6,"CN1CCC(C2CCN(C(=O)[C@H](NC(=O)c3ccc(Cl)c(N)c3)c3ccccc3)CC2)CC1 [Example 63, 1-(3-Amino-4-chlorobenzoyl-D-phenylglycinyl)-1′-methyl-4,4′-bispiperidine]",2.1
7,"COc1ccc(C(=O)N[C@@H](C(=O)N2CCN(c3ccc(F)cc3S(C)(=O)=O)CC2)c2ccccc2)cc1 [Example 39, 1-(4-Methoxybenzoyl-D-phenylglycinyl)-4-(4-fluoro-2-methylsulphonylphenyl)piperazine]",12
8,"Cc1ccc(C(=O)N[C@@H](C(=O)N2CCC(C3CCN(C)CC3)CC2)c2ccccc2)cc1N [Example 64, 1-(3-Amino-4-methylbenzoyl-D-phenylglycinyl)-1′-methyl-4,4′-bispiperidine]",4.4
9,"CN1CCC(C2CCN(C(=O)[C@H](NC(=O)c3ccc4cc[nH]c4c3)c3ccccc3)CC2)CC1 [Example 66, 1-(Indol-6-carbonyl-D-phenylglycinyl)-1′-methyl-4,4′-bispiperidine]",2.1
10,"CN1CCC(C2CCN(C(=O)[C@H](NC(=O)c3ccc(Br)c(N)c3)c3ccccc3)CC2)CC1 [Example 68, 1-(3-Amino-4-bromobenzoyl-D-phenylglycinyl)-1′-methyl-4,4′-bispiperidine]",3.6
11,"Nc1cc2ccccc2cc1C(=O)N[C@@H](C(=O)N1CCC(C2CCNCC2)CC1)c1ccccc1 [Example 8, 1-(3-Amino-2-naphthoyl-D-phenylglycinyl)-4,4′-bispiperidine]",26
12,"CN1CCC(C2CCN(C(=O)[C@H](NC(=O)c3cc4ccccc4cc3N)c3ccccc3)CC2)CC1 [Example 65, 1-(3-Aminonaphth-2-oyl-D-phenylglycinyl)-1′-methyl-4,4′-bispiperidine]",6.1
13,"CN1CCC(C2CCN(C(=O)[C@H](NC(=O)c3cccc(N)c3)c3ccccc3)CC2)CC1 [Example 62, 1-(3-Aminobenzoyl-D-phonylglycinyl)-1′-methyl-4,4′-bispiperidine]",8.6
14,"CS(=O)(=O)c1cc(F)ccc1N1CCN(C(=O)[C@H](NC(=O)c2cc(N)ccc2N)c2ccccc2)CC1 [Example 27, 1-(2,5-Diaminobenzoyl-D-phenylglycinyl)-4-(4-fluoro-2-methylsulphonylphenyl)piperazine]",6.7
15,"COc1ccc(C(=O)N[C@@H](C(=O)N2CCN(c3ccc(F)cc3S(C)(=O)=O)CC2)c2ccccc2)cc1N [Example 40, 1-(3-Amino-4-methoxybenzoyl-D-phenylglycinyl)-4-(4-fluoro-2-methylsulphonylphenyl)piperazine]",12
16,"COc1ccc(C(=O)N[C@@H](C(=O)N2CCC(C3CCN(C)CC3)CC2)c2ccccc2)cc1N [Example 69, 1-(3-Amino-4-methoxybenzoyl-D-phenylglycinyl)-1′-methyl-4,4′-bispiperidine]",5.8

# — patent publication US6855715B1, “Serine protease inhibitors” (Eli Lilly and Company, priority 1999, dated 2005)
